Experiments:
Type in all cases: cell-based
[1] = target: T1, human TLR9 (Homo sapiens, UniProt Q9NR96, H530R/Q688R); assay: NF-κB-luciferase activation in 293 cells transfected with human TLR9 (293-hTLR9-luc); details: 12 hours
T1 construct: expressed in transfected cells
T1 sequence (Q9NR96 26-1032 H530R/Q688R): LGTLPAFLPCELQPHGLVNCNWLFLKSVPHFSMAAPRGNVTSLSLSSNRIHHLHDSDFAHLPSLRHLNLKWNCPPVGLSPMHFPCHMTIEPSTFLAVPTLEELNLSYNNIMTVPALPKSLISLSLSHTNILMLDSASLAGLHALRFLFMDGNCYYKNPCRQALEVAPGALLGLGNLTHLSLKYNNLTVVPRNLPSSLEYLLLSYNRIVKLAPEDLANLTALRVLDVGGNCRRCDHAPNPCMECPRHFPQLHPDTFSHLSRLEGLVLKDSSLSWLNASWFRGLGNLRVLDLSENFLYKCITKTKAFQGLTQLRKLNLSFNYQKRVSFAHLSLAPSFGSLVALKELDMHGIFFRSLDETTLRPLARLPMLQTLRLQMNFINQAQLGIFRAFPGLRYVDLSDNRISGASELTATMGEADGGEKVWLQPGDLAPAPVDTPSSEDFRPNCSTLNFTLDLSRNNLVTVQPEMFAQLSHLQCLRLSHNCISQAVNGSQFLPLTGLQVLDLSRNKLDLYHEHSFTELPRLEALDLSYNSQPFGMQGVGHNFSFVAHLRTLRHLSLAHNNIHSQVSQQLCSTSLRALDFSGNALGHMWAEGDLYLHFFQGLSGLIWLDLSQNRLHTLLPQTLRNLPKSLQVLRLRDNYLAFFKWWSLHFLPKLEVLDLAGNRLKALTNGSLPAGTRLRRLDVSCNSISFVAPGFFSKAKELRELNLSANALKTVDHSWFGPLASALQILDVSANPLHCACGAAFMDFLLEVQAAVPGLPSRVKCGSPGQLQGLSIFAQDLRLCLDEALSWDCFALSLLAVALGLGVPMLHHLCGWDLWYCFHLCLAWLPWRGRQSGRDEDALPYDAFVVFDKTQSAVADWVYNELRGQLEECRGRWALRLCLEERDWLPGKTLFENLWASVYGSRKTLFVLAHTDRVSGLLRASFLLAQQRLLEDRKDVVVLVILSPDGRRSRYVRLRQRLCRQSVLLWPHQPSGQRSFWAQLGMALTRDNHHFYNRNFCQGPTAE

[2] = target: T2, murine TLR9 (Mus musculus, UniProt Q9EQU3, L378S/Q579H/T325N/T573A/T867A); assay: NF-κB-luciferase activation in 293 cells transfected with murine TLR9 (293-mTLR9-luc); details: for EC50: ODN concentration of half-maximal activation, 293-mTLR9-luc cells, NF-κB-driven luciferase readout, 12 hours, read-out: 293-mTLR9 Kac
T2 construct: additional primers were designed for amplification of the complete mouse TLR9 cDNA; expressed in transfected cells
T2 sequence (Q9EQU3 26-1032 T325N/L378S/T573A/Q579H/T867A): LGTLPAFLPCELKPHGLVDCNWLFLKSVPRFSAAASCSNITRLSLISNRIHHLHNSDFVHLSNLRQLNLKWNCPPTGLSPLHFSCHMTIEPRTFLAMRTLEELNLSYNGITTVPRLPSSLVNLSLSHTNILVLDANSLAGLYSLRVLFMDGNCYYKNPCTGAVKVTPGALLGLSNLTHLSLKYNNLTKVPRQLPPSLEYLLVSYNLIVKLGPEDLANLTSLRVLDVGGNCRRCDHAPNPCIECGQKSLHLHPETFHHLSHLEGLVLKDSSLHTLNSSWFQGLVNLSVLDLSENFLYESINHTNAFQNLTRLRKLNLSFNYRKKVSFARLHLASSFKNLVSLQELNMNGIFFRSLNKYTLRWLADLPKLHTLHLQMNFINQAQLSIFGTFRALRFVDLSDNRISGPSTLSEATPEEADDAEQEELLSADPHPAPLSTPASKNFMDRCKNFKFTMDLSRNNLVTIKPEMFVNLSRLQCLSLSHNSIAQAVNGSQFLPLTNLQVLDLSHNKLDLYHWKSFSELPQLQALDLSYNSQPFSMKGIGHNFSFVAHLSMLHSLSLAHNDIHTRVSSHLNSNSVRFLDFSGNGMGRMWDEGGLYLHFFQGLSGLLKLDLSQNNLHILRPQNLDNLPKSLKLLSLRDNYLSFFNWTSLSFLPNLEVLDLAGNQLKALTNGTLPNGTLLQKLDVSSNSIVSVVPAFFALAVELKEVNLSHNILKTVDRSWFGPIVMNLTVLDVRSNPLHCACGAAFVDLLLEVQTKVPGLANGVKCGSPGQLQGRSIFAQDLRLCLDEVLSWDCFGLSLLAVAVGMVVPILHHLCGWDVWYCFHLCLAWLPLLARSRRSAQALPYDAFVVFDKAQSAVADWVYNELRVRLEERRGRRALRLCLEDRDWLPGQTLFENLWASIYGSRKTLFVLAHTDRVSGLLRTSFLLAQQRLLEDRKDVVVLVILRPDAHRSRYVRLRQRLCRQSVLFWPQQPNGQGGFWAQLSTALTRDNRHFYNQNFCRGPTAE
Excerpt: Human fibroblast 293 cells were transiently transfected with mTLR9 and the NF-κB-luc construct (FIG. 2). Similar data was obtained for IL-8 production (not shown). Thus expression of TLR9 (human or mouse) in 293 cells results in a gain of function for CpG-DNA stimulation similar to hTLR4 reconstitution of LPS responses.
To generate stable clones expressing human TLR9, murine TLR9, or either TLR9 with the NF-κB-luc reporter plasmid, 293 cells were transfected in 10 cm plates (2×10^6 cells/plate) with 16 μg of DNA and selected with 0.7 mg/ml G418 (PAA Laboratories GmbH, Cölbe, Germany). The clones were also screened for IL-8 production or NF-κB-luciferase activity after stimulation with ODN. Four different types of clones were generated. • 293-hTLR9-luc: expressing human TLR9 and 6-fold NF-κB-luciferase reporter • 293-mTLR9-luc: expressing murine TLR9 and 6-fold NF-κB-luciferase reporter • 293-hTLR9: expressing human TLR9 • 293-mTLR9: expressing murine TLR9
Similar results were obtained utilizing IL-8 production with the stable clone 293-hTLR9. 293-mTLR9-luc were also stimulated with CpG-ODN (1668, 2 μM; […], SEQ ID NO:84), GpC-ODN (1668-GC, 2 μM; […], SEQ ID NO:85), Me-CpG-ODN (1668 methylated, 2 μM; TCCATGAZGTTCCTGATGCT, Z=5-methylcytidine, SEQ ID NO:207), LPS (100 ng/ml) or media, as measured by monitoring NF-κB activation (FIG. 5). Similar results were obtained utilizing IL-8 production with the stable clone 293-mTLR9. Results are representative of at least two independent experiments. […] These cells can be used for screening of optimal ligands for innate immune responses driven by TLR9 in multiple species.
Because stable TLR9 transfectants mirrored primary cell responsiveness to CpG-DNA (FIGS. 4 and 5), it was hypothesized that stable transfectants could potentially discern species-specific CpG-motifs through TLR9 receptors. Therefore 293-hTLR9-luc (expressing human TLR9 and 6-fold NF-κB-luc reporter), 293-mTLR9-luc (expressing murine TLR9 and 6-fold NF-κB-luc reporter), 293-hTLR9 (expressing human TLR9) and 293-mTLR9 (expressing murine TLR9) clones were tested for CpG-DNA motif responsiveness. […] Depicted are both NF-κB-driven luciferase and IL-8 production as readout. […] After lysis of the cells luciferase can be detected photometrically based on an enzymatic reaction by luciferase which creates photons. IL-8 production was monitored using enzyme-linked immunosorbent assay (ELISA). […] Results shown in FIG. 11 are representative of three independent experiments. Strikingly, CpG-motif sequence specificity was conferred in a species-specific manner by TLR9. Additionally, the half-maximal concentration for either 2006 or 1668 appears nearly the same as those determined on primary cells (compare FIG. 10 and FIG. 11).
(§1) Although 2006 and 1668 are discussed in terms of CpG-motif differences, they are very different in several aspects (see Table 5 for comparison). The lengths are different, 24 versus 20 nucleotides, and 2006 has four CG dinucleotides compared to one in 1668. Additional differences are the CG position relative to the 5′ and 3′ ends and also 5′ sequence differences. In order to determine if motif specificity is a quality of the motif and not the global sequence environment, for this experiment several sequences were produced holding these variables constant. As a starting point, the 1668 sequence was modified by converting the central C to T and the distal TG to CG, thereby creating a second CG in the resulting sequence 5000 (SEQ ID NO:130, Table 5). Then point nucleotide changes were made, progressing toward a 2006-like sequence, 5007 (SEQ ID NO:98). The ODN 5002 (SEQ ID NO:132) is most like 1668 with the exception that C's at positions 12 and 19 have been converted to T's. […]

[3] = target: T1, human TLR9; assay: NF-κB-luciferase activation in 293 cells transfected with human TLR9 (293-hTLR9-luc); details: ODN concentration of half-maximal activation; 293-hTLR9-luc cells, NF-κB-driven luciferase readout, 12 hours; read-out: 293-hTLR9 Kac
Excerpt: Since NF-κB activation is central to the IL-1/TLR signal transduction pathway (Medzhitov R et al., Mol Cell 2:253-258 (1998); Muzio M et al., J Exp Med 187:2097-2101 (1998)), cells were transfected with hTLR9 or co-transfected with hTLR9 and a NF-κB-driven luciferase reporter construct. Human fibroblast 293 cells were transiently transfected with (FIG. 1A) hTLR9 and a six-times NF-κB-luciferase reporter plasmid (NF-κB-luc, kindly provided by Patrick Baeuerle, Munich, Germany) or (FIG. 1B) with hTLR9 alone. After stimulus with CpG-ODN (2006, 2 μM, […], SEQ ID NO:112), GpC-ODN (2006-GC, 2 μM, […], SEQ ID NO:118), LPS (100 ng/ml) or media, NF-κB activation by luciferase readout (8 h, FIG. 1A) or IL-8 production by ELISA (48 h, FIG. 1B) were monitored. Results are representative of three independent experiments.
To generate stable clones expressing human TLR9, murine TLR9, or either TLR9 with the NF-κB-luc reporter plasmid, 293 cells were transfected in 10 cm plates (2×10^6 cells/plate) with 16 μg of DNA and selected with 0.7 mg/ml G418 (PAA Laboratories GmbH, Cölbe, Germany). The clones were also screened for IL-8 production or NF-κB-luciferase activity after stimulation with ODN. Four different types of clones were generated. • 293-hTLR9-luc: expressing human TLR9 and 6-fold NF-κB-luciferase reporter • 293-mTLR9-luc: expressing murine TLR9 and 6-fold NF-κB-luciferase reporter • 293-hTLR9: expressing human TLR9 • 293-mTLR9: expressing murine TLR9 […]
Because stable TLR9 transfectants mirrored primary cell responsiveness to CpG-DNA (FIGS. 4 and 5), it was hypothesized that stable transfectants could potentially discern species-specific CpG-motifs through TLR9 receptors. Therefore 293-hTLR9-luc (expressing human TLR9 and 6-fold NF-κB-luc reporter), 293-mTLR9-luc (expressing murine TLR9 and 6-fold NF-κB-luc reporter), 293-hTLR9 (expressing human TLR9) and 293-mTLR9 (expressing murine TLR9) clones were tested for CpG-DNA motif responsiveness. […] Depicted are both NF-κB-driven luciferase and IL-8 production as readout. […] After lysis of the cells luciferase can be detected photometrically based on an enzymatic reaction by luciferase which creates photons. IL-8 production was monitored using enzyme-linked immunosorbent assay (ELISA). FIG. 11 depicts clones stimulated with ODN 2006 (filled circle), ODN 2006-GC (open circle), ODN 1668 (filled triangle) or ODN 1668-GC (open triangle) at indicated concentrations and NF-κB activation or IL-8 production were measured after 10 and 48 hours, respectively. Results shown in FIG. 11 are representative of three independent experiments. Strikingly, CpG-motif sequence specificity was conferred in a species-specific manner by TLR9. Additionally, the half-maximal concentration for either 2006 or 1668 appears nearly the same as those determined on primary cells (compare FIG. 10 and FIG. 11).
as §1

In the case of “5′-HHHHHHHHHHHHHHWGGGGG-3′ (chemistry not given here) [blocking ODN, H=A, T, C; W=A, T]”, the “blockade of CpG-ODN-induced NF-κB activation” value ([1]; 293-hTLR9-luc cells, CpG-ODN 0.5 μM, increasing concentrations of blocking ODN) is reported as “sensitive to non-CpG-ODN blockade” and the “TNF-driven NF-κB signal” value ([1]; 293-hTLR9-luc cells, TNF-α 10 ng/ml, increasing concentrations of blocking ODN) is reported as “not diminished”.

`CO/C1=C\C(C)=C\[C@@H](C)[C@@H](O)[C@@H](C)C/C(C)=C/C=C/[C@H](OC)[C@@H]([C@@H](C)[C@@H](O)[C@H](C)[C@@]2(O)C[C@@H](O)[C@H](C)[C@@H](C(C)C)O2)OC1=O` [Bafilomycin A] was tested, and the “CpG-ODN induction of NF-κB” value ([1]; 293-hTLR9-luc cells preincubated 30 min with 10 nM, CpG-ODN 2006 0.5 μM) was “fully blocks” and the “IL-1 and TNF induction of NF-κB” value ([1]; 293-hTLR9-luc cells preincubated 30 min with 10 nM, IL-1 10 ng/ml or TNF-α 10 ng/ml) was “unaffected”.

In the case of “TCCATGACGTCATTGATGTT (listed as DNA, chemistry not fully specified) [ODN 5010]”, the EC50 [2] is reported as over 10 µM.

In the case of “TCCATGACGTCCTTGATGTT (listed as DNA, chemistry not fully specified) [ODN 5009]”, the 293-mTLR9 responsiveness ([2]; ACGTT versus ACGTC (5002 versus 5009)) is reported as “completely destroyed 293-mTLR9 responsiveness” and the EC50 [2] is reported as over 10 µM.

For “TCCATGACGTTATTGATGTT (listed as DNA, chemistry not fully specified) [ODN 5008]”, the EC50 [2] was 0.04 µM.

Compound “TCCATGACGTTCTTGATGTT (listed as DNA, chemistry not fully specified) [ODN 5002]” has an EC50 [3] of 7 µM.

“TCCATGACGTTTTTGATGTT (listed as DNA, chemistry not fully specified) [ODN 5003]” was tested, and the EC50 [3] was 10 µM.
